The values below come from patent US20220265723A1, “NON-VIRAL MODIFICATION OF MESENCHYMAL STEM CELLS” (NATIONAL UNIVERSITY OF SINGAPORE, priority 2019, published 2022).

Read-outs that look alike come from different tables or passages of the source. Bounds are passed on as bounds.

For assay [1] the following is noted: cited from earlier work; for Potential of activation (fold): per enzyme/prodrug system.
For assay [2] the following is noted: systems: CA/CPT-11, CD/5-FC, CPG2/CMDA, CJS278, Cyt-450, dCK/ara-C, HSV-TK, NR/CB1954, PNP/6-MePdR, TP/5′-DFUR, VZV-TK/ara-M, XGPRT/6-TX, 6-TG; cited from earlier work.
The subject of assay [3] is prodrug-activating enzyme of each system: CA, CD, CPG2, Cyt-450, dCK, HSV-TK, NR, PNP, TP, VZV-TK. The settings on record: systems: CA/CPT-11, CD/5-FC, CPG2/CMDA, Cyt-450/CP, IF, dCK/ara-C, HSV-TK/GCV, ACV, NR/CB1954, PNP/6-MePdR, TP/5′-DFUR, VZV-TK/ara-M; read-out: KM (S0.5); cited from earlier work.
The test system of assay [4] is CDy::UPRT_AT-MSCs. Briefly: Sensitivity of modified AT-MSCs to 5FC and 5FU, MTS assay. The class given is cell-based, human. As to the method:
The cell viability at each time point was measured by standard MTS assay. At various time points, samples without 5FC treatment served as control. […] MTS assay were used to measure cell viability post treatment. Conditions without 5FU treatment was taken as 100%. Results were presented as mean±SD (n=4). […] Isotype antibodies served as respective controls. […] At the end of incubation, cells were stained with Alizarin red S. Calcium deposits stained with Alizarin red S were one of the phenotype indicating differentiated AT-MSCs. […] Fourteen days later, cells were stained with Oil Red-O. This dye stained for oil droplets visible in the cells, indicative of adipogenic differentiation. The images were captured at 20× magnification;
Quadruplicates of AT-MSC, MKN1, MKN45, MDA-MB-231 (10,000 cells per well) and U-251MG (4000 cells per well) for each treatment were plated into 96-well plates. […] One to five days later, plates were subjected to the CellTiter 96 Aqueous One Solution Cell Proliferation Assay (Promega). The colorimetric read out was measured spectrophotometrically at 490 nm. Results were expressed as the percentage of cell viability, in relative to cells in condition without 5-FC or 5-FU (set to 100%).
A general note: Tetrazolium dyes change colour on reduction, which living cells bring about.

The mark [5] stands for this setting: prodrug of the enzyme/prodrug system, read-out: Potency, IC50 (μM) Prodrug.
Setting [6] is: active drug formed from the prodrug of the system, read-out: Potency, IC50 (μM) Drug.

For orientation: IC50 means the concentration needed to halve the response being measured. On to `Nc1nc(=S)c2[nH]cnc2[nH]1` [6-TG], for which the IC50 in assay [1] (setting [5]) was 0.5 µM. In addition, in assay [2], the “Degree of activation (fold)” value is reported as 6-TG: 10 fold.

As a reminder, the Km is the concentration of substrate that gives half-maximal velocity. Consider `CS(=O)(=O)OCCN(CCCl)c1ccc(C(=O)N[C@@H](CCC(=O)O)C(=O)O)cc1` [CMDA], for which the IC50 in assay [1] (setting [5]) was 1700 to 3120 µM. Moreover, the Michaelis constant (Km) in assay [3] was 3.4 µM.

`O=c1[nH]cc(F)c(=O)[nH]1` [5FU, 5-fluorouracil]: the IC50 in assay [1] (setting [6]) is 4 to 23.5 µM. The “susceptibility of CDy::UPRT_AT-MSCs versus unmodified AT-MSCs” value in assay [4] (100 μg/mL 5FU, 5 days) is on record as “increased susceptibility of suicide effect”.

Turning to `NC(=O)c1cc(N2CC2)c([N+](=O)[O-])cc1[N+](=O)[O-]` [CB1954], the “Potential of activation (fold)” value in assay [1] is given as >50,000 fold. The IC50 in assay [1] (setting [5]) was > 1000 µM. Moreover, the “Degree of activation (fold)” value in assay [2] is 14-10,000 fold. The Km in assay [3] was 900 µM.

For the compound `Cc1ncnc2nc[nH]c12`, the 50% inhibitory concentration (IC50) in assay [1] (setting [6]) was 3.7 µM.

In the case of `O=P1(NCCCl)OCCCN1CCCl` (centres unmarked) [IF], in assay [1] (setting [5]), the IC50 was ~4000 µM. For the same compound, the Km in assay [3] was 480 µM.

On to `CCc1c2c(nc3ccc(OC(=O)N4CCC(N5CCCCC5)CC4)cc13)-c1cc3c(c(=O)n1C2)COC(=O)[C@]3(O)CC` [CPT-11], for which the IC50 in assay [1] (setting [5]) is 1.6 to 8.1 µM.

As for `COc1ncnc2c1ncn2[C@@H]1O[C@H](CO)[C@@H](O)[C@@H]1O` [ara-M], the “Potential of activation (fold)” value in assay [1] was >2,000 fold. Also, the IC50 in assay [1] (setting [5]) is > 2000 µM. In assay [2], the “Degree of activation (fold)” value is on record as 55-600 fold. For the same compound, the Km in assay [3] is 56 µM.

On to `C[C@H]1O[C@@H](n2cc(F)c(=O)[nH]c2=O)[C@H](O)[C@@H]1O` [5′-DFUR], for which the “Potential of activation (fold)” value in assay [1] is listed as 7000 fold. For the same compound, in assay [1] (setting [5]), the IC50 is 17 µM. In addition, in assay [2], the “Degree of activation (fold)” value is 165 fold. For the same compound, the Km in assay [3] was 325 to 433 µM.

On to `CS(=O)(=O)OCCN(CCCl)c1ccc(C(=O)O)cc1` [CMBA], for which the IC50 in assay [1] (setting [6]) is 8 to 65 µM.

For the compound `O=c1[nH]c(=O)n([C@H]2C[C@H](O)[C@@H](CO)O2)cc1F` [5-FUdR], in assay [1] (setting [6]), the IC50 was 0.0023 µM.

For `Nc1ccn([C@@H]2O[C@H](CO)[C@@H](O)[C@@H]2O)c(=O)n1` [ara-C], the IC50 in assay [1] (setting [5]) was 0.3 to 0.6 µM. For the same compound, the “Degree of activation (fold)” value in assay [2] is on record as 2-100 fold. Further, the Km in assay [3] was 25.6 µM.

With `COc1cccc2c1C(=O)c1c(O)c3c(c(O)c1C2=O)C[C@@](O)(C(=O)CO)C[C@@H]3O[C@H]1C[C@H](N)[C@H](O)[C@H](C)O1` [Doxorubicin], in assay [1] (setting [6]), the IC50 is 0.012 µM. Also, the “Potential of activation (fold)” value in assay [1] is 21 fold. Further, the “Degree of activation (fold)” value in assay [2] was 11 fold.

As for `Nc1nc(=O)[nH]cc1F` [5FC, 5-fluorocytosine], in assay [4] (150 μg/mL 5FC, over time), the “cell viability of CDy::UPRT modified AT-MSCs” value is recorded as “reduced cell viability over time”.

For `CCc1c2c(nc3ccc(O)cc13)-c1cc3c(c(=O)n1C2)COC(=O)[C@]3(O)CC` [SN-38], the IC50 in assay [1] (setting [6]) was 0.003 to 0.011 µM.

Regarding `O=c1[nH]c(=S)c2[nH]cnc2[nH]1` [6-TX], the half-inhibitory concentration (IC50) in assay [1] (setting [5]) was > 50 µM. For the same compound, the “Degree of activation (fold)” value in assay [2] is 6-TX: >20; fold.

For `O=P1(N(CCCl)CCCl)NCCCO1` (centres unmarked) [CP], in assay [1] (setting [5]), the IC50 is ~4000 µM. In addition, the Michaelis-Menten constant (Km) in assay [3] was 300 µM.

Consider `Cc1ncnc2c1ncn2[C@H]1C[C@H](O)[C@@H](CO)O1` [6-MePdR], for which, in assay [1], the “Potential of activation (fold)” value is 25-1,000 fold. The IC50 in assay [1] (setting [5]) was > 200 µM. In addition, the “Degree of activation (fold)” value in assay [2] is on record as 40 fold. In addition, in assay [3], the Michaelis constant (Km) is 14 to 23 µM.

For the compound `Nc1nc(O)c2ncn(COC(CO)CO)c2n1` [GCV, ganciclovir], the IC50 in assay [1] (setting [5]) was 200 to 600 µM.
